Patent US20200338158A1, “Therapeutic Drug for Non-Alcoholic Fatty Liver Disease” (Shanghai Hep Pharmaceutical Co., Ltd., priority 2017, published 2020)
Entries after “also recorded” stand apart in the source; their conditions may differ.

How the values were obtained:
C57BL6 mice [1] = test: Liver histology (HE, Oil Red O, Masson, TUNEL staining), mouse NASH model; format: in vivo; conditions: for liver Masson staining (fibrous cords) / liver Oil Red O staining (fat accumulation) / liver Masson staining (fibrous depositions): vs model group
Experimental: (§1) In this example, a mouse nonalcoholic steatohepatitis (NASH) model was used to evaluate the effect of hepalatide (L47) on pathological changes and metabolism level of NASH, and to determine whether L47 can improve the pathological changes of NASH, so as to provide reference for pharmacodynamic evaluation of L47 before clinical treatment.
At week 8 and week 16, hematoxylin eosin (HE) staining, trichrome staining (Masson staining), Oil Red 0 staining and apoptosis (TUNEL) staining were performed on the liver tissue sections of mice.

C57BL6 mice [2] = test: Blood (serum) biochemistry test, mouse NASH model; format: in vivo
Source text: as §1
Total cholesterol (TC), triglyceride (TG), total bilirubin (TBIL), high-density lipoprotein cholesterol (HDL-C), low-density lipoprotein cholesterol (LDL-C), alkaline phosphatase (ALP), albumin (ALB), aspartate aminotransferase (AST) and alanine aminotransferase (ALT) were provided by Shanghai Adicon Company and tested by automatic biochemical analyzer.
Total bile acid (TBA), very low density lipoprotein (VLDL): provided by Nanjing Jiancheng Bioengineering Institute.
At week 8 and week 16, blood was taken from fasted mice (fasted for 12 hours) after anesthesia, and levels of serum TG, TC, ALB, ALP, ALT, AST, HDL-C, LDL-C, VLDL, TBIL, TBA, insulin (Ins) were measured.

[3] = week 8, treatment groups (HL1, HH1)
[4] = week 16, HH1 (L47 30 mg/kg*2/d s.c. from start)
[5] = week 16, HH2 (L47 30 mg/kg*2/d s.c., started after 8 weeks)
[6] = week 16, HL1 (L47 10 mg/kg*2/d s.c. from start)
[7] = week 16, HL2 (L47 10 mg/kg*2/d s.c., started after 8 weeks)
[8] = week 8, treatment groups (HL1, HH1) vs model group
[9] = week 8, treatment groups vs model group
[10] = week 8, vs model group, HL1 (L47 10 mg/kg*2/d s.c. from start)
[11] = week 16, treatment groups vs model group (conclusions)
[12] = week 16, vs model group, HH2 (L47 30 mg/kg*2/d s.c., started after 8 weeks), 30 mg/kg
[13] = week 16, vs model group, HL1 (L47 10 mg/kg*2/d s.c. from start)
[14] = week 16, vs model group, HL2 (L47 10 mg/kg*2/d s.c., started after 8 weeks), p<0.05
[15] = week 16, vs model group, high dose group 1 (L47 30 mg/kg*2/d s.c. from start), 30 mg/kg

## hepalatide [L47]
C57BL6 mice [1]; week 8, low and high dose groups (HL1, HH1)
  liver HE staining (fat vacuoles, inflammatory cells): only less and smaller fat vacuoles were formed, with less inflammatory cells
C57BL6 mice [1]; [3]
  liver Oil Red O staining (fat droplet vacuoles): only smaller and less vacuoles
  liver TUNEL staining (apoptosis): effectively improved
C57BL6 mice [1]; week 8, treatment groups (HL1, HH1) vs model group, p<0.001, p<0.001
  TUNEL semi-quantitative counting (number of apoptotic bodies): significantly decreased
C57BL6 mice [1]; [4]
  liver HE staining (steatosis, inflammatory cell infiltration): severe steatosis
  liver TUNEL staining (apoptosis): no improvement
  liver Masson staining (fibrous cords): no significant difference
  liver Oil Red O staining (fat accumulation): only slightly reduced
C57BL6 mice [1]; [5]
  liver TUNEL staining (apoptosis): effectively improved
  liver Masson staining (fibrous depositions): decreased
  liver Oil Red O staining (fat accumulation): significantly reduced
C57BL6 mice [1]; week 16, HH2 (L47 30 mg/kg*2/d s.c., started after 8 weeks), p<0.01
  TUNEL semi-quantitative counting (number of apoptotic bodies): significantly decreased
C57BL6 mice [1]; [6]
  liver TUNEL staining (apoptosis): no improvement
  liver Masson staining (fibrous cords): no significant difference
  liver Oil Red O staining (fat accumulation): only slightly reduced
C57BL6 mice [1]; [7]
  liver TUNEL staining (apoptosis): effectively improved
  liver Masson staining (fibrous depositions): decreased
  liver Oil Red O staining (fat accumulation): significantly reduced
C57BL6 mice [1]; week 16, HL2 (L47 10 mg/kg*2/d s.c., started after 8 weeks), p<0.01
  TUNEL semi-quantitative counting (number of apoptotic bodies): significantly decreased
C57BL6 mice [1]; week 16, other groups (HL1, HL2, HH2)
  liver HE staining (steatosis, inflammatory response): slight steatosis and inflammatory response
C57BL6 mice [2]; at week 20 (so in the source), HH1 (L47 30 mg/kg*2/d s.c. from start), p<0.01
  serum LDL-C level: decreased
C57BL6 mice [2]; at week 20 (so in the source), HL1 (L47 10 mg/kg*2/d s.c. from start), p≤0.001
  serum LDL-C level: decreased
C57BL6 mice [2]; at week 20 (so in the source), treatment groups except HH2, vs model group, p<0.01
  serum HDL-C level: decreased
C57BL6 mice [2]; week 8, HH1 (L47 30 mg/kg*2/d s.c. from start)
  serum LDL-C level: decreased
C57BL6 mice [2]; week 8, HL1 (L47 10 mg/kg*2/d s.c. from start), p<0.05
  serum TC level: decreased significantly
C57BL6 mice [2]; [8]
  serum AST level: decreasing trend; also recorded: decreased
  serum TC level: significantly decreased
  serum TG level: significantly decreased
C57BL6 mice [2]; week 8, treatment groups (HL1, HH1) vs model group, p≤0.001
  serum ALT level: significantly decreased
C57BL6 mice [2]; [9]
  serum ALB level: decreased
  serum ALP level: no significant difference
  serum HDL level: no significant difference
  serum LDL level: decreased
  serum VLDL level: no significant difference
C57BL6 mice [2]; [10]
  serum HDL-C level: decreased
  serum LDL-C level: decreased
C57BL6 mice [2]; week 16, HH2 (L47 30 mg/kg*2/d s.c., started after 8 weeks), p<0.001
  serum ALB level: slightly decreased
C57BL6 mice [2]; week 16, HL2 (L47 10 mg/kg*2/d s.c., started after 8 weeks), p<0.001
  serum ALB level: slightly decreased
C57BL6 mice [2]; week 16, among the groups
  serum ALP level: no significant difference
C57BL6 mice [2]; week 16, other groups (HL1, HH1)
  serum ALB level: no difference
C57BL6 mice [2]; week 16, other groups except HL2 (HL1, HH1, HH2) vs model group
  serum VLDL level: increased
C57BL6 mice [2]; week 16, treatment groups (HL1, HH1, HL2, HH2) vs model group, p<0.001, p<0.001, p≤0.001, p<0.05
  serum TC level: significantly decreased
C57BL6 mice [2]; week 16, treatment groups vs model group
  serum TG level: did not decrease; also recorded: no significant difference
C57BL6 mice [2]; [11]
  serum HDL level: decreased
  serum LDL level: decreased
  serum VLDL level: no significant difference
C57BL6 mice [2]; [12]
  serum ALT level: decreasing trends; also recorded: decreased significantly
  serum AST level: decreasing trends; also recorded: decreased significantly
C57BL6 mice [2]; [13]
  serum ALT level: did not decrease
  serum AST level: did not decrease
C57BL6 mice [2]; [14]
  serum ALT level: significantly decreased
  serum AST level: significantly decreased
C57BL6 mice [2]; [15]
  serum ALT level: did not decrease; also recorded: increasing trends
  serum AST level: did not decrease; also recorded: increasing trends
